Reference: publication PMC10893103, “Cyclodextrin-Enabled Enantioselective Complexation Study of Cathinone Analogs” (Molecules, 2024)

assay: Affinity capillary electrophoresis (ACE), pH 7.4; conditions: 30 mM phosphate buffer pH 7.4, 25 °C, 15 kV
Excerpt: To assess the CD complex formation capability of the five cathinone derivatives, we devised a screening ACE method tailored to closely mimic physiological conditions. In a preliminary study, the ACE conditions were optimized regarding the type, pH, and concentration of the background electrolyte, the applied voltage, and the injection parameters. […] In order to avoid high Joule heat generation, sufficiently low voltage should be used; thus, after registering the Ohm plot (I-U plot), it was set to 15 kV. Throughout our ACE measurements, corrections for viscosity and ionic strength were systematically implemented to ensure precise determination of complex stability constants.
The CE experiments were performed on a HP ^3DCE and on an Agilent 7100 instrument (Agilent Technologies, Waldbronn, Germany) equipped with a photodiode array detector and the Chemstation software for data handling. Untreated fused silica capillaries (50 µm id, 48.5 cm total, 40 cm effective length) were purchased from Agilent. Conditioning of new capillary was conducted by flushing with 1 M NaOH followed by 0.1 M NaOH and water for 30 min each. Prior to all runs, the capillary was preconditioned by rinsing with BGE (2 min). The temperature of the capillary was set to 25 °C. UV detection was performed at 215 nm, and 15–25 kV voltage was applied. Samples were injected hydrodynamically (150 mbar·sec, optimized in the 50–500 mbar·sec range). The CE-pH measurements were carried out applying 25 kV voltage and 200 mbar·sec injection.
The background electrolyte of the CE-pH measurements contained 25 mM Na2HPO4 and 25 mM Na2B4O7, and the appropriate pH was adjusted with hydrochloric acid. During the ACE measurements, 30 mM phosphate buffer pH 7.4 (30 mM Na2HPO4—NaOH) was used. The running buffer was 20 mM acetic acid adjusting with 1 M Tris the pH to 4.5 during the chiral screening experiments. The BGEs contained CDs at various concentrations (0.25–20 mM) in the ACE experiments and 1-5-10 mM in the chiral method optimization experiments.
Stock solutions of each cathinone analog (mephedrone, flephedrone, 4-MEC, butylone, and MDPV) were prepared separately in methanol (1 mg/ml), and appropriate dilutions with water were used to prepare sample solutions for the CE-pH titration and for the ACE studies applying DMSO as EOF marker, while their mixture was used during the chiral separation studies.
The simplest way to determine the mobility is from the migration times (tmax) read from the electropherograms from which the apparent mobility could be calculated, but more accurate mobility values could be obtained by the determination with the Haarhoff–van der Linde (HVL) function based on Equation (2). (2) HVLδ(t;a0,a1,a2,a3δ)=a0/a2a3δ2πexp[−1/2(t−a1/a2)^2]/1/exp(a3δ)−1+1/2[1+erf(t−a1/2a2)] where a0 is the area of the HVL function, a1 is the position of the Gaussian component, a2 is the standard deviation of the Gaussian component, and a3δ is the peak shape distortion. The application of the HVL function is necessary in the case of accurate ACE measurements because, in several cases, the peaks are distorted due to the complex formation, which makes reading the migration times and calculating the mobility more difficult and imprecise.
The most popular technique for quantifying the analyte–ligand interaction with CE is mobility shift ACE.

Compound	4-MEC–CD complex stability constant, Kstab/Kstab1 (unresolved or first migrating enantiomer) [M⁻¹]	Flephedrone–CD complex stability constant, Kstab/Kstab1 (unresolved or first migrating enantiomer) [M⁻¹]	MDPV–CD complex stability constant, Kstab2 (second migrating enantiomer)	MDPV–CD complex stability constant, Kstab/Kstab1 (unresolved or first migrating enantiomer) [M⁻¹]	Mephedrone–CD complex stability constant, Kstab/Kstab1 (unresolved or first migrating enantiomer) [M⁻¹]	Flephedrone–CD complex stability constant, Kstab2 (second migrating enantiomer) [M⁻¹]	4-MEC–CD complex stability constant, Kstab2 (second migrating enantiomer) [M⁻¹]	Butylone–CD complex stability constant, Kstab/Kstab1 (unresolved or first migrating enantiomer) [M⁻¹]	Butylone–CD complex stability constant, Kstab2 (second migrating enantiomer) [M⁻¹]	Mephedrone–CD complex stability constant, Kstab2 (second migrating enantiomer) [M⁻¹]
OC[C@H]1O[C@@H]2O[C@H]3[C@H](O)[C@@H](O)[C@@H](O[C@H]4[C@H](O)[C@@H](O)[C@@H](O[C@H]5[C@H](O)[C@@H](O)[C@@H](O[C@H]6[C@H](O)[C@@H](O)[C@@H](O[C@H]7[C@H](O)[C@@H](O)[C@@H](O[C@H]8[C@H](O)[C@@H](O)[C@@H](O[C@H]1[C@H](O)[C@H]2O)O[C@@H]8CO)O[C@@H]7CO)O[C@@H]6CO)O[C@@H]5CN1CCCC1)O[C@@H]4CO)O[C@@H]3CO [PYR-β-CD, 6-monodeoxy-6-pyrrolidine-β-CD]	215 ± 30	640 ± 145	430 ± 50 M⁻¹	105 ± 15	115 ± 20	–	–	–	–	–
O=C(O)CCSC[C@H]1O[C@@H]2O[C@H]3[C@H](O)[C@@H](O)[C@@H](O[C@H]4[C@H](O)[C@@H](O)[C@@H](O[C@H]5[C@H](O)[C@@H](O)[C@@H](O[C@H]6[C@H](O)[C@@H](O)[C@@H](O[C@H]7[C@H](O)[C@@H](O)[C@@H](O[C@H]1[C@H](O)[C@H]2O)O[C@@H]7CSCCC(=O)O)O[C@@H]6CSCCC(=O)O)O[C@@H]5CSCCC(=O)O)O[C@@H]4CSCCC(=O)O)O[C@@H]3CSCCC(=O)O [SAX, hexakis-(6-deoxy-6-(2-carboxyethyl)thio)-α-CD]	–	–	–	–	530 ± 45	–	–	–	–	–
O=C(O)CCSC[C@H]1O[C@@H]2O[C@H]3[C@H](O)[C@@H](O)[C@@H](O[C@H]4[C@H](O)[C@@H](O)[C@@H](O[C@H]5[C@H](O)[C@@H](O)[C@@H](O[C@H]6[C@H](O)[C@@H](O)[C@@H](O[C@H]7[C@H](O)[C@@H](O)[C@@H](O[C@H]8[C@H](O)[C@@H](O)[C@@H](O[C@H]1[C@H](O)[C@H]2O)O[C@@H]8CSCCC(=O)O)O[C@@H]7CSCCC(=O)O)O[C@@H]6CSCCC(=O)O)O[C@@H]5CSCCC(=O)O)O[C@@H]4CSCCC(=O)O)O[C@@H]3CSCCC(=O)O [SBX, heptakis-(6-deoxy-6-(2-carboxyethyl)thio)-β-CD]	–	575 ± 35	12,830 ± 900 M^−1	–	–	610 ± 45	–	–	–	–
O=C(O)CCSC[C@H]1O[C@@H]2O[C@H]3[C@H](O)[C@@H](O)[C@@H](O[C@H]4[C@H](O)[C@@H](O)[C@@H](O[C@H]5[C@H](O)[C@@H](O)[C@@H](O[C@H]6[C@H](O)[C@@H](O)[C@@H](O[C@H]7[C@H](O)[C@@H](O)[C@@H](O[C@H]8[C@H](O)[C@@H](O)[C@@H](O[C@H]9[C@H](O)C(O)[C@@H](O[C@H]1[C@H](O)[C@H]2O)O[C@@H]9CSCCC(=O)O)O[C@@H]8CSCCC(=O)O)O[C@@H]7CSCCC(=O)O)O[C@@H]6CSCCC(=O)O)O[C@@H]5CSCCC(=O)O)O[C@@H]4CSCCC(=O)O)O[C@@H]3CSCCC(=O)O (stereo partly shown) [SGX, octakis(6-deoxy-6-(2-carboxyethyl)thio)-γ-CD]	975 ± 90	315 ± 20	–	–	825 ± 65	–	960 ± 95	–	–	–
COCC1OC2OC3C(COC)OC(OC4C(COC)OC(OC5C(COC)OC(OC6C(COC)OC(OC7C(COC)OC(OC8C(COC)OC(OC1C(OC)C2OC)C(OC)C8OC)C(OC)C7OC)C(OC)C6OC)C(OC)C5OC)C(OC)C4OC)C(OC)C3OC (stereo not drawn) [TRIME-β-CD, permethylated-β-CD]	60 ± 15	< 10	–	40 ± 10	20 ± 3	–	–	20 ± 2	–	–
COC[C@H]1O[C@@H]2O[C@H]3[C@H](OC)[C@@H](OC)[C@@H](O[C@H]4[C@H](OC)[C@@H](OC)[C@@H](O[C@H]5[C@H](OC)[C@@H](OC)[C@@H](O[C@H]6[C@H](OC)[C@@H](OC)[C@@H](O[C@H]7[C@H](OC)[C@@H](OC)[C@@H](O[C@H]8[C@H](OC)[C@@H](OC)[C@@H](O[C@H]9[C@H](OC)[C@@H](OC)[C@@H](O[C@H]1[C@H](OC)[C@H]2OC)O[C@@H]9COC)O[C@@H]8COC)O[C@@H]7COC)O[C@@H]6COC)O[C@@H]5COC)O[C@@H]4COC)O[C@@H]3COC [TRIME-γ-CD, permethylated-γ-CD]	20 ± 4	< 10	–	45 ± 14	< 10	–	–	25 ± 10	–	–
OC[C@H]1O[C@@H]2O[C@H]3[C@H](O)[C@@H](O)[C@@H](O[C@H]4[C@H](O)[C@@H](O)[C@@H](O[C@H]5[C@H](O)[C@@H](O)[C@@H](O[C@H]6[C@H](O)[C@@H](O)[C@@H](O[C@H]7[C@H](O)[C@@H](O)[C@@H](O[C@H]1[C@H](O)[C@H]2O)O[C@@H]7CO)O[C@@H]6CO)O[C@@H]5CO)O[C@@H]4CO)O[C@@H]3CO [α-CD]	30 ± 5	40 ± 4	50 ± 5 M⁻¹	40 ± 6	30 ± 4	–	–	40 ± 5	–	–
OC[C@H]1O[C@@H]2O[C@H]3[C@H](O)[C@@H](O)[C@@H](O[C@H]4[C@H](O)[C@@H](O)[C@@H](O[C@H]5[C@H](O)[C@@H](O)[C@@H](O[C@H]6[C@H](O)[C@@H](O)[C@@H](O[C@H]7[C@H](O)[C@@H](O)[C@@H](O[C@H]8[C@H](O)[C@@H](O)[C@@H](O[C@H]9[C@H](O)[C@@H](O)[C@@H](O[C@H]1[C@H](O)[C@H]2O)O[C@@H]9CO)O[C@@H]8CO)O[C@@H]7CO)O[C@@H]6CO)O[C@@H]5CO)O[C@@H]4CO)O[C@@H]3CO [γ-CD]	90 ± 15	125 ± 10	–	100 ± 10	60 ± 10	–	–	30 ± 3	–	–
acetylated-β-CD [Ac-β-CD]	150 ± 15	100 ± 14	240 ± 20 M⁻¹	310 ± 30	220 ± 20	–	–	290 ± 30	380 ± 30	–
carboxyethylated-β-CD [CE-β-CD]	590 ± 40	150 ± 10	–	–	400 ± 30	–	–	975 ± 95	–	430 ± 25
